# Measured values: patent US9229013B2, “Vasoactive hormone-based stratification of patients suffering from diseases related to endothelial function/dysfunction” (B.R.A.H.M.S GMBH, priority 2009, dated 2016)
# Marks after values point to notes of the source that are not given here.
# Experiments:
# [1] = system: patients with severe congestive heart failure in NYHA class IV; settings: mortality after 6 months; patients stratified by peptide concentrations below and above median; cited from earlier work
# [2] = system: patients having suffered a myocardial infarction; assay: LAMP study (Outcome MACE): hazard ratio medication vs no medication, stratified by biomarker quintile; format: in vivo, human
# Description: (§1) Suitable threshold levels for the stratification of subjects into different groups (categories) have to be determined for each particular combination of vasoactive hormone or fragments thereof or precursors or fragments thereof, medication and disease. This can e.g. be done by grouping a reference population of patients according to their level of vasoactive hormone into certain quantiles, e.g. tertiles, quartiles, quintiles or even according to suitable percentiles. […] A HR around 1 (e.g. +/−0.1) indicates no elevated risk but also no benefit from medication for the particular group of patients. By comparison of the HR between certain quantiles of patients with each other and with the HR of the overall population of patients, it is possible to identify those quantiles of patients who have an elevated risk and those who benefit from medication and thereby stratify subjects according to the present invention.
# (§2) FIGS. 14 to 21 illustrate the survival rate for patients suffering from myocardial infarction from the “Leicester Acute Myocardial Infarction Peptide Study” (“LAMP”). FIGS. 22 to 34 illustrate the rate of major cardiac events for patients suffering from acute myocardial infarction from “LAMP-Study”.
# The study involved 983 consecutive patients with acute myocardial infarction (AMI) admitted to the Coronary Care Unit of Leicester Royal Infirmary. […] Acute myocardial infarction was subcategorized into ST-segment elevation myocardial infarction (STEMI) or non-ST-segment myocardial infarction (NSTEMI).
# Blood samples were drawn on 1 occasion 3 to 5 days after the onset of chest pain. After 15 min bed rest, 20 ml blood was collected into tubes containing ethylendiaminetetraacetic acid (EDTA) and aprotinin. All plasma samples were stored at −70° C. until assayed in a blinded fashion in a single batch. In a subgroup of 132 patients from the original 983-patient cohort, blood sampling was performed daily for 5 days from admission to discharge.
# (§3) Survival rates, i.e. the proportion of patients surviving at a given time after entry into the studies, are plotted in the appended figures over time for different combinations of a particular vasoactive hormone with a particular medication. The patients have been stratified into quintiles according to their respective hormone levels. […] For some cases, two or more quintiles have been pooled were appropriate. Hazard ratios (HR) have been calculated for various combinations of particular vasoactive hormones with particular medications. HR have also been calculated for particular quintiles and/or pooled quintiles and compared to overall HR for each combination.
# [3] = system: patients having suffered a myocardial infarction; assay: LAMP study (Outcome Death): hazard ratio medication vs no medication, stratified by biomarker quintile; format: in vivo, human; settings: for HR Medicament in Marker-Quantile 1 / HR Medicament in Marker-Quantile 2-4 / HR Medicament in Marker-Quantile 5 / HR Medicament (overall patient group): LAMP, Outcome Death
# Description: Suitable threshold levels for the stratification of subjects into different groups (categories) have to be determined for each particular combination of vasoactive hormone or fragments thereof or precursors or fragments thereof, medication and disease. This can e.g. be done by grouping a reference population of patients according to their level of vasoactive hormone into certain quantiles, e.g. tertiles, quartiles, quintiles or even according to suitable percentiles. […] A HR around 1 (e.g. +/−0.1) indicates no elevated risk but also no benefit from medication for the particular group of patients.
# as §2
# Acute myocardial infarction was subcategorized into ST-segment elevation myocardial infarction (STEMI) or non-ST-segment myocardial infarction (NSTEMI).
# Blood samples were drawn on 1 occasion 3 to 5 days after the onset of chest pain. After 15 min bed rest, 20 ml blood was collected into tubes containing ethylendiaminetetraacetic acid (EDTA) and aprotinin. All plasma samples were stored at −70° C. until assayed in a blinded fashion in a single batch.
# as §3
# [4] = system: patients having suffered from ischemic or haemorrhagic stroke or TIA; assay: COSMOS study: survival (deaths), hazard ratio medication vs no medication, stratified by biomarker quintile; format: in vivo, human; settings: for effect of administration at high (higher) levels of vasoactive hormones / effect of administration at low (lower) levels of vasoactive hormones: COSMOS study, summary of Table 2; for HR Medicament Marker-Quintile 1 / HR Medicament Marker-Quintile 2-4 / HR Medicament Marker-Quintile 5 / HR Medicament (overall patient group): COSMOS
# Description: as §1
# FIGS. 9 to 13 illustrate the survival rate for patients suffering from ischemic stroke, hemorrhagic stroke or transient ischemic attack from the “Copeptin to guide disease severity and Management, Osmostatus and Stress” (“COSMOS”).
# The study was set at the emergency and neurological and neurosurgical clinic of the University Hospital of Basel. All consecutive patients who are admitted to the emergency department with an ischemic or hemorrhagic stroke or transient ischemic attack (TIA) according to the World Health Organization criteria with symptom onset within the last 3 days were included into the study. Patients without an informed consent were excluded.
# Step 5. In patients with ischemic stroke a telephone follow-up regarding morbidity and mortality (as assessed by the Barthel Index and Ranking Scale) will be obtained after 3 months. An unfavorable outcome will be defined as a Barthel index <85 or modified Ranking scale of 3 to 6. II) Post-Myocardial Infarction (MI) Patients (Leicester Acute Myocardial Infarction Peptide Study (“LAMP”)) Study Population:
# as §3
# Table 2 lists the results for the patients from the COSMOS study (patients having suffered from ischemic or haemorrhagic stroke or TIA).
# [5] = system: patients with chronic ischemic left ventricular dysfunction; settings: patients exhibiting a higher pre-treatment plasma NT-proBNP and adrenomedullin (ADM); cited from earlier work
structure (smiles),measurement,setting,value
CCOC(=O)[C@H](CCc1ccccc1)N[C@@H](C)C(=O)N1CCC[C@H]1C(=O)O [elanapril],effect on mortality,[1],beneficial effect
O=C(NCCO[N+](=O)[O-])c1cccnc1 [Nicorandil],HR Medicament in Marker-Quantile 1,[2]; CT-proET-1 4.6-56.6 pmol/L,7.1
same,HR Medicament in Marker-Quantile 2-4,[2]; CT-proET-1 56.6-118 pmol/L,1.2
same,HR Medicament in Marker-Quantile 5,[2]; CT-proET-1 118-671 pmol/L,0.7
same,HR Medicament (overall patient group),[2]; biomarker CT-proET-1,1.2
same,HR Medicament in Marker-Quantile 1,[3]; NT-proBNP 0.3-204 pg/mL,4.8
same,HR Medicament in Marker-Quantile 2-4,[3]; NT-proBNP 204-3160 pg/mL,<0.1
same,HR Medicament in Marker-Quantile 5,[3]; NT-proBNP 3160-11800 pg/mL,0.5
same,HR Medicament (overall patient group),[3]; biomarker NT-proBNP,0.5
COC(=O)[C@H](c1ccccc1Cl)N1CCc2sccc2C1 [Plavix],effect of administration at high (higher) levels of vasoactive hormones,[4],positive effect
same,effect of administration at low (lower) levels of vasoactive hormones,[4],unfavourable effect
same,HR Medicament Marker-Quintile 1,[4]; MR-proADM 0.05-0.47 nmol/L,1.8
same,HR Medicament Marker-Quintile 2-4,[4]; MR-proADM 0.47-0.91 nmol/L,0.2
same,HR Medicament Marker-Quintile 5,[4]; MR-proADM 0.91-5.49 nmol/L,0.1
same,HR Medicament (overall patient group),[4]; biomarker MR-proADM,0.3
CC(=O)Oc1ccccc1C(=O)O [Acetylsalicylic acid],HR Medicament in Marker-Quantile 1,[3]; CT-proAVP 0.31-4.6 pmol/L,>100
same,HR Medicament in Marker-Quantile 2-4,[3]; CT-proAVP 4.6-42.1 pmol/L,0.4
same,HR Medicament in Marker-Quantile 5,[3]; CT-proAVP 42.1-1040 pmol/L,0.3
same,HR Medicament in Marker-Quantile 1,[3]; MR-proADM 0.035-0.47 nmol/L,>100
same,HR Medicament in Marker-Quantile 2-4,[3]; MR-proADM 0.47-1.18 nmol/L,0.5
same,HR Medicament in Marker-Quantile 5,[3]; MR-proADM 1.18-6.75 nmol/L,0.3
same,HR Medicament in Marker-Quantile 1,[3]; MR-proANP 14.5-59.6 pmol/L,>100
same,HR Medicament in Marker-Quantile 2-4,[3]; MR-proANP 59.6-283 pmol/L,0.4
same,HR Medicament in Marker-Quantile 5,[3]; MR-proANP 283-1650 pmol/L,0.4
same,HR Medicament in Marker-Quantile 1,[3]; NT-proBNP 0.12-184 pg/mL,>100
same,HR Medicament in Marker-Quantile 2-4,[3]; NT-proBNP 184-2700 pg/mL,0.3
same,HR Medicament in Marker-Quantile 5,[3]; NT-proBNP 2700-34100 pg/mL,0.5
same,HR Medicament (overall patient group),[3]; biomarker CT-proAVP,0.3
same,HR Medicament (overall patient group),[3]; biomarker MR-proADM,0.3
same,HR Medicament (overall patient group),[3]; biomarker MR-proANP,0.3
same,HR Medicament (overall patient group),[3]; biomarker NT-proBNP,0.3
same,effect of administration at high (higher) levels of vasoactive hormones,[4],unfavourable effect
same,effect of administration at low (lower) levels of vasoactive hormones,[4],positive effect
same,HR Medicament Marker-Quintile 5,[4]; CT-proAVP 23.5-499 pmol/L,2.6
same,HR Medicament Marker-Quintile 1,[4]; CT-proET-1 4.5-55.5 pmol/L,0.5
same,HR Medicament Marker-Quintile 2-4,[4]; CT-proET-1 55.5-93.1 pmol/L,1.5
same,HR Medicament Marker-Quintile 5,[4]; CT-proET-1 93.1-368 pmol/L,2.5
same,HR Medicament Marker-Quintile 1,[4]; MR-proADM 0.05-0.47 nmol/L,0.6
same,HR Medicament Marker-Quintile 2-4,[4]; MR-proADM 0.47-0.91 nmol/L,0.7
same,HR Medicament Marker-Quintile 5,[4]; MR-proADM 0.91-5.49 nmol/L,2.4
same,HR Medicament Marker-Quintile 1,[4]; MR-proANP 20.8-71.6 pmol/L,<0.1
same,HR Medicament Marker-Quintile 2-4,[4]; MR-proANP 71.6-240 pmol/L,1.7
same,HR Medicament Marker-Quintile 5,[4]; MR-proANP 240-1560 pmol/L,2.3
same,HR Medicament Marker-Quintile 2-4,"[4]; Quintiles 1 to 4 are pooled, CT-proAVP 0.69-23.5 pmol/L",0.8*
same,HR Medicament (overall patient group),[4]; biomarker CT-proAVP,1.3
same,HR Medicament (overall patient group),[4]; biomarker CT-proET-1,1.4
same,HR Medicament (overall patient group),[4]; biomarker MR-proADM,1
same,HR Medicament (overall patient group),[4]; biomarker MR-proANP,1.3
same,deaths with medication,"[4]; FIG. 12A, marker MR-proANP, overall population, n=209 with medication",20
same,deaths with medication,"[4]; FIG. 12B, 1st MR-proANP quintile (22.3-69.5 pmol/L), n=51 with medication",0
same,deaths with medication,"[4]; FIG. 12C, 2nd to 4th MR-proANP quintiles (69.5-250 pmol/L), n=124 with medication",6
same,deaths with medication,"[4]; FIG. 12D, 5th MR-proANP quintile (250-1540 pmol/L), n=34 with medication",14
O=[N+]([O-])O [Nitrate],HR Medicament in Marker-Quantile 1,[2]; CT-proAVP 0.3-3.6 pmol/L,2.8
same,HR Medicament in Marker-Quantile 2-4,[2]; CT-proAVP 3.6-18.7 pmol/L,1.2
same,HR Medicament in Marker-Quantile 5,[2]; CT-proAVP 18.7-441 pmol/L,0.6
same,HR Medicament in Marker-Quantile 1,[2]; CT-proET-1 4.6-56.6 pmol/L,2.4
same,HR Medicament in Marker-Quantile 2-4,[2]; CT-proET-1 56.6-118 pmol/L,0.9
same,HR Medicament in Marker-Quantile 5,[2]; CT-proET-1 118-671 pmol/L,0.9
same,HR Medicament in Marker-Quantile 1,[2]; MR-proADM 0.09-0.53 nmol/L,2.4
same,HR Medicament in Marker-Quantile 2-4,[2]; MR-proADM 0.53-1.16 nmol/L,0.9
same,HR Medicament in Marker-Quantile 5,[2]; MR-proADM 1.16-6.95 nmol/L,1
same,HR Medicament in Marker-Quantile 1,[2]; MR-proANP 4.9-65 pmol/L,3.8
same,HR Medicament in Marker-Quantile 2-4,[2]; MR-proANP 65-264 pmol/L,1
same,HR Medicament in Marker-Quantile 5,[2]; MR-proANP 264-1630 pmol/L,0.8
same,HR Medicament in Marker-Quantile 1,[2]; NT-proBNP 0.12-184 pg/mL,2.4
same,HR Medicament in Marker-Quantile 2-4,[2]; NT-proBNP 184-2700 pg/mL,0.8
same,HR Medicament in Marker-Quantile 5,[2]; NT-proBNP 2700-34100 pg/mL,0.9
same,HR Medicament (overall patient group),[2]; biomarker CT-proAVP,1.1
same,HR Medicament (overall patient group),[2]; biomarker CT-proET-1,1.1
same,HR Medicament (overall patient group),[2]; biomarker MR-proADM,1.1
same,HR Medicament (overall patient group),[2]; biomarker MR-proANP,1.1
same,HR Medicament (overall patient group),[2]; biomarker NT-proBNP,1
same,deaths with medication,"[3]; FIG. 16A, marker CT-proAVP, overall population, n=494 with medication",23
same,deaths with medication,"[3]; FIG. 16B, 1st CT-proAVP quintile (0.31-4.6 pmol/L), n=69 with medication",2
same,deaths with medication,"[3]; FIG. 16C, 2nd to 4th CT-proAVP quintiles (4.6-42.1 pmol/L), n=318 with medication",11
same,deaths with medication,"[3]; FIG. 16D, 5th CT-proAVP quintile (42.1-1040 pmol/L), n=107 with medication",10
same,HR Medicament in Marker-Quantile 1,[3]; CT-ET-1 3.7-65.4 pmol/L,1
same,HR Medicament in Marker-Quantile 2-4,[3]; CT-ET-1 65.4-136 pmol/L,1
same,HR Medicament in Marker-Quantile 5,[3]; CT-ET-1 136-468 pmol/L,0.3
same,HR Medicament in Marker-Quantile 1,[3]; CT-proAVP 0.31-4.6 pmol/L,4.8
same,HR Medicament in Marker-Quantile 2-4,[3]; CT-proAVP 4.6-42.1 pmol/L,0.7
same,HR Medicament in Marker-Quantile 5,[3]; CT-proAVP 42.1-1040 pmol/L,0.3
same,HR Medicament in Marker-Quantile 1,[3]; MR-proANP 14.5-59.6 pmol/L,>100
same,HR Medicament in Marker-Quantile 2-4,[3]; MR-proANP 59.6-283 pmol/L,0.9
same,HR Medicament in Marker-Quantile 5,[3]; MR-proANP 283-1650 pmol/L,0.3
same,HR Medicament in Marker-Quantile 1,[3]; NT-proBNP 0.12-184 pg/mL,1.9
same,HR Medicament in Marker-Quantile 2-4,[3]; NT-proBNP 184-2700 pg/mL,0.6
same,HR Medicament in Marker-Quantile 5,[3]; NT-proBNP 2700-34100 pg/mL,0.5
same,HR Medicament (overall patient group),[3]; biomarker CT-ET-1,0.6
same,HR Medicament (overall patient group),[3]; biomarker CT-proAVP,0.5
same,HR Medicament (overall patient group),[3]; biomarker MR-proANP,0.5
same,HR Medicament (overall patient group),[3]; biomarker NT-proBNP,0.7
COc1ccccc1OCCNCC(O)COc1cccc2[nH]c3ccccc3c12 (stereo not drawn) [carvedilol],effect on mortality and heart failure,[5],reduced mortality and heart failure
